Reference: patent publication US8124637B2, “Anthra [1, 2-d]imidazole-6,11-dione derivatives, preparation method and application thereof” (National Defense Medical Center, priority 2010, dated 2012)

Assays:
UACC-62 = experiment: NCI 60-cell drug screen, one dose; type: cell-based, human; conditions: Melanoma UACC-62, 1.00E−5 Molar
Method: (§1) In brief, cellular protein levels were determined after 48 hours of drug exposure by sulforhodamine B colorimetry.
(§2) The screening system in United State National Cancer Institute (NCI) consists of 60 kinds of different human cancer cells, which can be used to assay the growth-inhibiting ability or cell toxicity of a compound against various cancer and tumor at a certain concentration. The NCI had selected 6 compounds synthesized above, and performed cell toxicity assay against 60 kinds of cancer cell strains (Table 2) (DTP Human Tumor Cell Line Screen), in which each compound was assayed at a certain concentration to observe its inhibition ability or cell toxicity against various kinds of cancer and tumor.

HOP-62 = experiment: NCI 60-cell drug screen, one dose; type: cell-based, human; conditions: Non-Small Cell Lung Cancer HOP-62, 1.00E−5 Molar
Method: as §1, §2

M14 = experiment: NCI 60-cell drug screen, one dose; type: cell-based, human; conditions: Melanoma M14, 1.00E−5 Molar
Method: as §1, §2

SF-539 = experiment: NCI 60-cell drug screen, one dose; type: cell-based, human; conditions: CNS Cancer SF-539, 1.00E−5 Molar
Method: as §1, §2

MDA-MB-231/ATCC = experiment: NCI 60-cell drug screen, one dose; type: cell-based, human; conditions: Breast Cancer MDA-MB-231/ATCC, 1.00E−5 Molar
Method: as §1, §2

HCT-116 = experiment: NCI 60-cell drug screen, one dose; type: cell-based, human; conditions: Colon Cancer HCT-116, 1.00E−5 Molar
Method: as §1, §2

HCT-15 = experiment: NCI 60-cell drug screen, one dose; type: cell-based, human; conditions: Colon Cancer HCT-15, 1.00E−5 Molar
Method: as §1, §2

NCI-H23 = experiment: NCI 60-cell drug screen, one dose; type: cell-based, human; conditions: Non-Small Cell Lung Cancer NCI-H23, 1.00E−5 Molar
Method: as §1, §2

MDA-MB-468 = experiment: NCI 60-cell drug screen, one dose; type: cell-based, human; conditions: Breast Cancer MDA-MB-468, 1.00E−5 Molar
Method: as §1, §2

MCF7 = experiment: NCI 60-cell drug screen, one dose; type: cell-based, human; conditions: Breast Cancer MCF7, 1.00E−5 Molar
Method: as §1, §2

SNB-75 = experiment: NCI 60-cell drug screen, one dose; type: cell-based, human; conditions: CNS Cancer SNB-75, 1.00E−5 Molar
Method: as §1, §2

[1] = NCI 60-cell drug screen, one dose; type: cell-based, human; conditions: Renal Cancer A489, 1.00E−5 Molar
Method: as §1, §2

UO-31 = experiment: NCI 60-cell drug screen, one dose; type: cell-based, human; conditions: Renal Cancer UO-31, 1.00E−5 Molar
Method: as §1, §2

HT29 = experiment: NCI 60-cell drug screen, one dose; type: cell-based, human; conditions: Colon Cancer HT29, 1.00E−5 Molar
Method: as §1, §2

NCI-H322M = experiment: NCI 60-cell drug screen, one dose; type: cell-based, human; conditions: Non-Small Cell Lung Cancer NCI-H322M, 1.00E−5 Molar
Method: as §1, §2

SW-620 = experiment: NCI 60-cell drug screen, one dose; type: cell-based, human; conditions: Colon Cancer SW-620, 1.00E−5 Molar
Method: as §1, §2

COLO 205 = experiment: NCI 60-cell drug screen, one dose; type: cell-based, human; conditions: Colon Cancer COLO 205, 1.00E−5 Molar
Method: as §1, §2

T-47D = experiment: NCI 60-cell drug screen, one dose; type: cell-based, human; conditions: Breast Cancer T-47D, 1.00E−5 Molar
Method: as §1, §2

SK-OV-3 = experiment: NCI 60-cell drug screen, one dose; type: cell-based, human; conditions: Ovarian Cancer SK-OV-3, 1.00E−5 Molar
Method: as §1, §2

SF-268 = experiment: NCI 60-cell drug screen, one dose; type: cell-based, human; conditions: CNS Cancer SF-268, 1.00E−5 Molar
Method: as §1, §2

SK-MEL-5 = experiment: NCI 60-cell drug screen, one dose; type: cell-based, human; conditions: Melanoma SK-MEL-5, 1.00E−5 Molar
Method: as §1, §2

OVCAR-5 = experiment: NCI 60-cell drug screen, one dose; type: cell-based, human; conditions: Ovarian Cancer OVCAR-5, 1.00E−5 Molar
Method: as §1, §2

HL-60(TB) = experiment: NCI 60-cell drug screen, one dose; type: cell-based, human; conditions: Leukemia HL-60(TB), 1.00E−5 Molar
Method: as §1, §2

LOX IMVI = experiment: NCI 60-cell drug screen, one dose; type: cell-based, human; conditions: Melanoma LOX IMVI, 1.00E−5 Molar
Method: as §1, §2

ACHN = experiment: NCI 60-cell drug screen, one dose; type: cell-based, human; conditions: Renal Cancer ACHN, 1.00E−5 Molar
Method: as §1, §2

SN12C = experiment: NCI 60-cell drug screen, one dose; type: cell-based, human; conditions: Renal Cancer SN12C, 1.00E−5 Molar
Method: as §1, §2

DU145 = experiment: NCI 60-cell drug screen, one dose; type: cell-based, human; conditions: Prostate Cancer DU145, 1.00E−5 Molar
Method: as §1, §2

KM12 = experiment: NCI 60-cell drug screen, one dose; type: cell-based, human; conditions: Colon Cancer KM12, 1.00E−5 Molar
Method: as §1, §2

MDA-MB-435 = experiment: NCI 60-cell drug screen, one dose; type: cell-based, human; conditions: Melanoma MDA-MB-435, 1.00E−5 Molar
Method: as §1, §2

NCI-H460 = experiment: NCI 60-cell drug screen, one dose; type: cell-based, human; conditions: Non-Small Cell Lung Cancer NCI-H460, 1.00E−5 Molar
Method: as §1, §2

TK-10 = experiment: NCI 60-cell drug screen, one dose; type: cell-based, human; conditions: Renal Cancer TK-10, 1.00E−5 Molar
Method: as §1, §2

786-0 = experiment: NCI 60-cell drug screen, one dose; type: cell-based, human; conditions: Renal Cancer 786-0, 1.00E−5 Molar
Method: as §1, §2

NCI-H226 = experiment: NCI 60-cell drug screen, one dose; type: cell-based, human; conditions: Non-Small Cell Lung Cancer NCI-H226, 1.00E−5 Molar
Method: as §1, §2

IGROV1 = experiment: NCI 60-cell drug screen, one dose; type: cell-based, human; conditions: Ovarian Cancer IGROV1, 1.00E−5 Molar
Method: as §1, §2

OVCAR-3 = experiment: NCI 60-cell drug screen, one dose; type: cell-based, human; conditions: Ovarian Cancer OVCAR-3, 1.00E−5 Molar
Method: as §1, §2

[2] = tested on: 60 kinds of different human cancer cells; experiment: NCI 60-cell drug screen, one dose, whole panel; type: cell-based; conditions: mean over the tested cell lines, 1.00E−5 Molar
Method: as §1, §2

O=C1c2ccccc2C(=O)c2c1ccc1nc(CN3CCN(c4ccccc4)CC3)[nH]c21 [CL27, 2-((4-phenylpiperazin-1-yl)methyl)-1H-anthra[1,2-d]imidazole-6,11-dione]
Growth Percent (UACC-62): 93.36% | Growth Percent (HOP-62): 98.40% | Growth Percent (M14): 106.33% | Growth Percent (SF-539): 112.36% | Growth Percent (MDA-MB-231/ATCC): 90.47% | Growth Percent (HCT-116): 78.28% | Growth Percent (HCT-15): 74.39% | Growth Percent (NCI-H23): 92.11% | Growth Percent (MDA-MB-468): 72.75% | Growth Percent (MCF7): 66.08% | Growth Percent (SNB-75): 70.93% | Growth Percent [1]: 75.09% | Growth Percent (UO-31): 58.33% | Growth Percent (HT29): 87.57% | Growth Percent (NCI-H322M): 91.96% | Growth Percent (SW-620): 90.92% | Growth Percent (COLO 205): 128.37% | Growth Percent (T-47D): 66.35% | Growth Percent (SK-OV-3): 98.95% | Growth Percent (SF-268): 80.44% | Growth Percent (SK-MEL-5): 74.84% | Growth Percent (OVCAR-5): 107.63% | Growth Percent (HL-60(TB)): 107.54% | Growth Percent (LOX IMVI): 95.76% | Growth Percent (ACHN): 86.32% | Growth Percent (SN12C): 89.91% | Growth Percent (DU145): 90.69% | Growth Percent (KM12): 85.80% | Growth Percent (MDA-MB-435): 101.37% | Growth Percent (NCI-H460): 94.45% | Growth Percent (TK-10): 118.37% | Growth Percent (786-0): 88.48% | Growth Percent (NCI-H226): 82.98% | Growth Percent (IGROV1): 69.25% | Growth Percent (OVCAR-3): 76.56% | Growth Percent, Mean [2]: 90.15%

O=C1c2ccccc2C(=O)c2c1ccc1nc(CN3CCN(c4ccccn4)CC3)[nH]c21 [CL28, 2-((4-(pyridin-2-yl)piperazin-1-yl)methyl)-1H-anthra[1,2-d]imidazole-6,11-dione]
Growth Percent (UACC-62): 85.13% | Growth Percent (HOP-62): 103.18% | Growth Percent (M14): 103.99% | Growth Percent (SF-539): 104.29% | Growth Percent (MDA-MB-231/ATCC): 72.65% | Growth Percent (HCT-116): 84.30% | Growth Percent (HCT-15): 86.02% | Growth Percent (NCI-H23): 81.65% | Growth Percent (MDA-MB-468): 53.92% | Growth Percent (MCF7): 81.99% | Growth Percent (SNB-75): 82.14% | Growth Percent [1]: 68.23% | Growth Percent (UO-31): 60.42% | Growth Percent (HT29): 75.79% | Growth Percent (NCI-H322M): 93.77% | Growth Percent (SW-620): 85.97% | Growth Percent (COLO 205): 110.79% | Growth Percent (T-47D): 56.78% | Growth Percent (SK-OV-3): 93.16% | Growth Percent (SF-268): 79.15% | Growth Percent (SK-MEL-5): 83.56% | Growth Percent (OVCAR-5): 110.77% | Growth Percent (HL-60(TB)): 97.31% | Growth Percent (LOX IMVI): 82.25% | Growth Percent (ACHN): 80.61% | Growth Percent (SN12C): 79.85% | Growth Percent (DU145): 81.46% | Growth Percent (KM12): 95.03% | Growth Percent (MDA-MB-435): 94.85% | Growth Percent (NCI-H460): 79.98% | Growth Percent (TK-10): 120.65% | Growth Percent (786-0): 91.03% | Growth Percent (NCI-H226): 91.88% | Growth Percent (IGROV1): 91.25% | Growth Percent (OVCAR-3): 88.67% | Growth Percent, Mean [2]: 87.65%
